Read-outs that look alike come from different tables or passages of the source.
Tests used:
[1] = tested on: influenza strain A/VN/1203/2004 (H5N1); assay: microbe, parasite or virus in culture; assay type: cell-based, Influenza A virus (H5N1); details: Influenza A virus, H5N1, MDCK, 72 h
[2] = tested on: Influenza virus strain A/CA/04/2009 (H1N1); assay: organism not typed; assay type: cell-based; details: MDCK, 72 h, read-out: H1N1 EC50 (@ 50% Via)
[3] = tested on: Madin Darby Canine Kidney (MDCK) cells; assay: cells; assay type: cell-based; details: Canis lupus familiaris, MDCK, read-out: IC50 (toxicity)
[4] = read-out: H5N1 EC50 (@ 50% Via)

SMILES | EC50 [1, 4] | EC50 ([1]; read-out: H5N1 EC50 (Inf Pt)) | EC50 [2] | IC50 [3]
COc1ccc(C2NC(=O)NC3=C2CN(C(=O)CN2CCC2)c2ccccc23)cc1Br (stereo not shown) [compound 25411] | 814 nM | 755 nM | 3.7 µM | > 40 µM
COc1ccc(C2NC(=O)NC3=C2CN(C(=O)CSCC(O)CO)c2ccccc23)cc1Br (stereo not shown) [compound 25412] | 893 nM | 848 nM | 3.1 µM | > 40 µM
COc1ccc(C2NC(=O)NC3=C2CN(C(=O)CSCCO)c2ccccc23)cc1Br (stereo not shown) [compound 25413] | 4400 nM | 4500 nM | 3.8 µM | > 40 µM
COc1ccc(C2NC(=O)NC3=C2CN(C(=O)CNC(=O)CO)c2ccccc23)cc1Br (stereo not shown) [compound 25414] | 277 nM | 275 nM | > 40 µM | > 40 µM

Reference: patent publication US20120040966A1, “ANTI-VIRAL COMPOUNDS, TREATMENT, AND ASSAY” (priority 2008, published 2012)
